According to patent publication US11072588B2, “Barbituric acid derivatives comprising cationic and lipophilic groups” (UNIVERSITETET I TROMSØ—NORGES ARKTISKE UNIVERSITET, priority 2017, dated 2021):
Values after ≈ are worked out from the molar mass of the structure shown.

What was measured:
[1] = system: Corynebacterium glutamicum ATCC 13032; experiment: MIC assay, antibiotic susceptible reference strain; format: cell-based; details: Corynebacterium glutamicum, ATCC13032, read-out: Antimicrobial activity (MIC) C. g
Method in brief: (§1)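 Broth microdilution followed CLSI M07-A9 with modifications: inoculum ~2.5-3×10^4 cells/mL in Mueller-Hinton broth, mixed 1:1 with test derivative, incubated 48 h at 35 °C. MIC was the lowest concentration giving no growth by OD600, tested in three parallels, with oxytetracycline as reference antibiotic.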

[2] = system: Staphylococcus aureus ATCC 9144; experiment: MIC assay, antibiotic susceptible reference strain; format: cell-based; details: Staphylococcus aureus, ATCC9144, read-out: Antimicrobial activity (MIC) S. a
Method in brief: as §1

[3] = system: Pseudomonas aeruginosa PA01, DSM 19880 (ATCC 15692); experiment: MIC assay, antibiotic susceptible reference strain; format: cell-based; details: Pseudomonas aeruginosa, read-out: Antimicrobial activity (MIC) P. a
Method in brief: as §1

[4] = system: Escherichia coli ATCC 25922; experiment: MIC assay, antibiotic susceptible reference strain; format: cell-based; details: Escherichia coli, ATCC25922, read-out: Antimicrobial activity (MIC) E. c
Method in brief: as §1

A. baumanii K44-35 = experiment: MIC, multi-resistant clinical isolate; format: cell-based, Acinetobacter baumannii; details: for MIC: Acinetobacter baumannii, K4435, read-out: Antimicrobial activity (MIC); for selectivity index (EC50/MIC): RBC EC50 / MIC
Method: (§2) Working solutions of the test derivatives were prepared with up to 100% DMSO and stored at −20° C. If necessary, the solutions were heated to 40-80° C. before testing to facilitate complete dissolution. Double-distilled water was used in all dilutions prepared. […] A microdilution susceptibility test was used for MIC determination according to Clinical and Laboratory Standards Institute, “Methods for Dilution Antimicrobial Sisceptibility Tests for Bacteria That Graw Aerobically”, Approved Standard M07-A9, edition 2012, with modifications as described by Igumnova et al (Bioorg Med Chem, 2016, 24 (22), 5884-5894).
(§3) Briefly, the bacterial inoculum was adjusted to approximately 2.5-3×10^4 cells/mL in Mueller-Hinton broth (MHB, Difco Laboratories, USA), and incubated in a ratio of 1:1 with test derivatives in polystyrene 96-well flat-bottom microplates (NUNC, Roskilde, Denmark). Positive growth control (without test derivatives) and negative control (without bacteria) were included. The reference antibiotic was oxytetracycline hydrochloride (Sigma Aldrich, Saint Louis, Mo., USA). The microplates were incubated in an EnVision microplate reader (Perkin-Elmer, Turku, Finland) placed in an incubator set to 35° C. for 48 h. The MIC value was defined as the lowest concentration of derivative resulting in no bacterial growth as determined by OD600 measurement. All derivatives were tested in three parallels.
(§4) The MIC was determined as explained above with some exceptions; working solutions of test derivatives were prepared from concentrated DMSO stocks stored at room temperature, the density of the bacterial inoculum was increased 40× to 1-1.2×10^6 cells/mL, enterococci were incubated in Brain Heart Infusion broth (BHIB, Difco Laboratories, USA), the microplates were incubated for 24 h, and the derivatives were tested in four parallels.

A. baumanii K47-42 = experiment: MIC, multi-resistant clinical isolate; format: cell-based, Acinetobacter baumannii; details: for MIC: Acinetobacter baumannii, K4742, read-out: Antimicrobial activity (MIC); for selectivity index (EC50/MIC): RBC EC50 / MIC
Method: as §2, §3, §4

A. baumanii K63-58 = experiment: MIC, multi-resistant clinical isolate; format: cell-based, Acinetobacter baumannii; details: A. baumanii K63-58, resistant to colistin; for MIC: Acinetobacter baumannii, K6358, 24 h, read-out: Antimicrobial activity (MIC); for selectivity index (EC50/MIC): RBC EC50 / MIC
Method: as §2, §3, §4

A. baumanii K12-21 = experiment: MIC, multi-resistant clinical isolate; format: cell-based, Acinetobacter baumannii; details: for MIC: Acinetobacter baumannii, K1221, read-out: Antimicrobial activity (MIC); for selectivity index (EC50/MIC): RBC EC50 / MIC
Method: as §2, §3, §4

A. baumanii K55-13 = experiment: MIC, multi-resistant clinical isolate; format: cell-based, Acinetobacter baumannii; details: for MIC: Acinetobacter baumannii, K5513, read-out: Antimicrobial activity (MIC); for selectivity index (EC50/MIC): RBC EC50 / MIC
Method: as §2, §3, §4

[5] = system: antibiotic susceptible Gram-positive and Gram-negative reference strains; experiment: MIC assay, ranges over the reference strains; format: cell-based; details: reference strains, range; read-out: MIC values against the Gram-negative bacteria E. coli and P. aeruginosa
Method: as §2, §3

[6] = Determination of haemolytic activity; format: cell-based; details: human red blood cells (washed, from heparinized fresh blood); human RBCs, 1 h, 37° C.; read-out: RBC: haemolytic activity against human RBCs (EC50)
Method: Hemolysis was determined using a heparinized fraction (1000 IU/mL) of freshly drawn blood. Blood collected in EDTA containing test tubes (Vacutest®, KIMA, Arzergrande, Italy) was used for determination of the hematocrit (hct). The heparinized blood was washed 3× with pre-warmed PBS and adjusted to a final hct of 4%. Derivatives in DMSO (50 mM) were added to a 96-well polypropylene V-bottom plate (NUNC, Fisher Scientific, Oslo, Norway) and serially diluted. The test concentration range was 500-4 μM with DMSO contents ≤1%. A solution of 1% triton X-100 was used as positive control for 100% hemolysis. As negative control a solution of 1% DMSO in PBS buffer was included. No signs of DMSO toxicity were detected. RBCs (1% v/v final concentration) were added to the well plate and incubated at 37° C. and 800 rpm for 1 h. After centrifugation (5 min, 3000 g), 100 μL of each well were transferred to a 96-well flat bottom plate and absorbance was measured at 545 nm with a microplate reader (VersaMax™, Molecular Devices, Sunnyvale, Calif., USA). The percentage of hemolysis was calculated as the ratio of the absorbance in the derivative-treated and surfactant treated samples, corrected for the PBS background. Three independent experiments were performed and EC50 values are presented as averages.

P. aeruginosa 50692172 = experiment: MIC, multi-resistant clinical isolate; format: cell-based, Pseudomonas aeruginosa; details: for MIC: Pseudomonas aeruginosa, read-out: Antimicrobial activity (MIC); for selectivity index (EC50/MIC): RBC EC50 / MIC
P. aeruginosa K34-73 = experiment: MIC, multi-resistant clinical isolate; format: cell-based, Pseudomonas aeruginosa; details: P. aeruginosa K34-73; for MIC: Pseudomonas aeruginosa, K3473, read-out: Antimicrobial activity (MIC); for selectivity index (EC50/MIC): RBC EC50 / MIC
K. pneumoniae 50625602 = experiment: MIC, multi-resistant clinical isolate; format: cell-based, Klebsiella pneumoniae; details: for MIC: Klebsiella pneumoniae, read-out: Antimicrobial activity (MIC); for selectivity index (EC50/MIC): RBC EC50 / MIC
Method: as §2, §3, §4

K. pneumoniae 50667959 = experiment: MIC, multi-resistant clinical isolate; format: cell-based, Klebsiella pneumoniae; details: for MIC: Klebsiella pneumoniae, read-out: Antimicrobial activity (MIC); for selectivity index (EC50/MIC): RBC EC50 / MIC
Method: as §2, §3, §4

K. pneumoniae 50531633 = experiment: MIC, multi-resistant clinical isolate; format: cell-based, Klebsiella pneumoniae; details: K. pneumoniae 50531633, resistant to colistin; for MIC: Klebsiella pneumoniae, 24 h, read-out: Antimicrobial activity (MIC); for selectivity index (EC50/MIC): RBC EC50 / MIC
Method: as §2, §3, §4

K. pneumoniae K47-25 = experiment: MIC, multi-resistant clinical isolate; format: cell-based, Klebsiella pneumoniae; details: K. pneumoniae K47-25, resistant to colistin; for MIC: Klebsiella pneumoniae, K4725, 24 h, read-out: Antimicrobial activity (MIC); for selectivity index (EC50/MIC): RBC EC50 / MIC
Method: as §2, §3, §4

SMILES | MIC [1] | MIC [2] | MIC [3] | MIC [4] | MIC (A. baumanii K44-35) | selectivity index (EC50/MIC) (A. baumanii K44-35) | MIC (A. baumanii K47-42) | selectivity index (EC50/MIC) (A. baumanii K47-42) | MIC (A. baumanii K63-58) | selectivity index (EC50/MIC) (A. baumanii K63-58) | MIC (A. baumanii K12-21) | selectivity index (EC50/MIC) (A. baumanii K12-21) | MIC (A. baumanii K55-13) | selectivity index (EC50/MIC) (A. baumanii K55-13) | MIC [5] | EC50 at 1 h [6] | MIC (P. aeruginosa 50692172) | selectivity index (EC50/MIC) (P. aeruginosa 50692172) | MIC (P. aeruginosa K34-73) | selectivity index (EC50/MIC) (P. aeruginosa K34-73) | also measured
N=C(N)NCCCCN1C(=O)N(CCCCNC(=N)N)C(=O)C(Cc2cc(Br)cc(Br)c2)(Cc2cc(Br)cc(Br)c2)C1=O [8(ii), 1,1′-(4,4′-(5,5-bis(3,5-dibromobenzyl)-2,4,6-trioxodihydropyrimidine-1,3(2H,4H)-diyl)bis(butane-4,1-diyl))diguanidine] | 0.25 µg/mL (≈ 0.294 µM) | 1 µg/mL (≈ 1.18 µM) | 4 µg/mL (≈ 4.7 µM) | 2 µg/mL (≈ 2.35 µM) | 4 µg/mL (≈ 4.7 µM) | (14) | 4 µg/mL (≈ 4.7 µM) | (14) | 4 µg/mL (≈ 4.7 µM) | (14) | 4 µg/mL (≈ 4.7 µM) | (14) | 8 µg/mL (≈ 9.41 µM) | (7) | 1 to 4 µg/mL (≈ 1.18 to 4.7 µM) | 56 µg/mL (≈ 65.9 µM) | 8 µg/mL (≈ 9.41 µM) | (7) | 8 µg/mL (≈ 9.41 µM) | (7) | MIC (K. pneumoniae 50625602): 4 µg/mL (≈ 4.7 µM); selectivity index (EC50/MIC) (K. pneumoniae 50625602): (14); MIC (K. pneumoniae 50667959): 4 µg/mL (≈ 4.7 µM); selectivity index (EC50/MIC) (K. pneumoniae 50667959): (14); MIC (K. pneumoniae 50531633): 4 µg/mL (≈ 4.7 µM); selectivity index (EC50/MIC) (K. pneumoniae 50531633): (14); MIC (K. pneumoniae K47-25): 4 µg/mL (≈ 4.7 µM); selectivity index (EC50/MIC) (K. pneumoniae K47-25): (14)
CC(C)(C)c1cc(CC2(Cc3cc(C(C)(C)C)cc(C(C)(C)C)c3)C(=O)N(CCCCNC(=N)N)C(=O)N(CCCCNC(=N)N)C2=O)cc(C(C)(C)C)c1 [8(iii), 1,1′-(4,4′-(5,5-bis(3,5-di-tert-butylbenzyl)-2,4,6-trioxodihydropyrimidine-1,3(2H,4H)-diyl)bis(butane-4,1-diyl))-diguanidine] | 0.25 µg/mL (≈ 0.329 µM) | 1 µg/mL (≈ 1.32 µM) | 4 µg/mL (≈ 5.27 µM) | 4 µg/mL (≈ 5.27 µM) | 4 µg/mL (≈ 5.27 µM) | (<1) | 4 µg/mL (≈ 5.27 µM) | (<1) | 4 µg/mL (≈ 5.27 µM) | (<1) | 4 µg/mL (≈ 5.27 µM) | (<1) | 4 µg/mL (≈ 5.27 µM) | (<1) | 4 µg/mL (≈ 5.27 µM) | < 4 µg/mL | 16 µg/mL (≈ 21.1 µM) | (<0.25) | 8 µg/mL (≈ 10.5 µM) | (<0.5) | MIC (K. pneumoniae 50625602): 16 µg/mL (≈ 21.1 µM); selectivity index (EC50/MIC) (K. pneumoniae 50625602): (<0.25); MIC (K. pneumoniae 50667959): 8 µg/mL (≈ 10.5 µM); selectivity index (EC50/MIC) (K. pneumoniae 50667959): (<0.5); MIC (K. pneumoniae 50531633): 16 µg/mL (≈ 21.1 µM); selectivity index (EC50/MIC) (K. pneumoniae 50531633): (<0.25); MIC (K. pneumoniae K47-25): 16 µg/mL (≈ 21.1 µM); selectivity index (EC50/MIC) (K. pneumoniae K47-25): (<0.25)
N=C(N)NCCCCN1C(=O)N(CCCCNC(=N)N)C(=O)C(Cc2ccc(F)c3ccccc23)(Cc2ccc(F)c3ccccc23)C1=O [8(v), 1,1′-(4,4′-(5,5-bis((4-fluoronaphthalen-1-yl)methyl)-2,4,6-trioxodihydropyrimidine-1,3(2H,4H)-diyl)bis(butane-4,1-diyl))diguanidine] | 0.25 µg/mL (≈ 0.373 µM) | 1 µg/mL (≈ 1.49 µM) | 4 µg/mL (≈ 5.96 µM) | 1 µg/mL (≈ 1.49 µM) | 8 µg/mL (≈ 11.9 µM) | (11) | 8 µg/mL (≈ 11.9 µM) | (11) | 8 µg/mL (≈ 11.9 µM) | (11) | 8 µg/mL (≈ 11.9 µM) | (11) | 8 µg/mL (≈ 11.9 µM) | (11) | 1 to 4 µg/mL (≈ 1.49 to 5.96 µM) | 88 µg/mL (≈ 131 µM) | 16 µg/mL (≈ 23.9 µM) | (6) | 8 µg/mL (≈ 11.9 µM) | (11) | MIC (K. pneumoniae 50625602): 16 µg/mL (≈ 23.9 µM); selectivity index (EC50/MIC) (K. pneumoniae 50625602): (6); MIC (K. pneumoniae 50667959): 4 µg/mL (≈ 5.96 µM); selectivity index (EC50/MIC) (K. pneumoniae 50667959): (22); MIC (K. pneumoniae 50531633): 8 µg/mL (≈ 11.9 µM); selectivity index (EC50/MIC) (K. pneumoniae 50531633): (11); MIC (K. pneumoniae K47-25): 8 µg/mL (≈ 11.9 µM); selectivity index (EC50/MIC) (K. pneumoniae K47-25): (11)
